Consider 23 molecules from article PMC3836566 (Chemical research in toxicology, 2013).

Entries after “also recorded” stand apart in the source; their conditions may differ.

Data set [1] concerns thyroid hormone sulfotransferase activity in pooled human liver cytosol. Nature of the data set: Inhibition of 3,3′-T2 sulfotransferase activity. The note with it: for inhibition of 3,3′-T2 sulfation (result in words): range of concentrations tested 10–1000 nM; for IC50: read-out: IC50 (nM) (95% CI) for the inhibition of 3,3′-T2S formation, 1 μM 3,3′-T2, 0.25 mg protein/ml pooled human liver cytosol, 50 μM PAPS, 30 min, 37°C.

For the next data set, the system named is SULT1A1. The note with it: read-out: Km of 3,3′-T2 for SULT1A1; cited from earlier work.
The subject of data set [2] is thyroid hormone sulfotransferase activity. Description: 3,3′-T2 sulfation kinetics in pooled human liver cytosol. It is filed as biochemical. The conditions noted are these: human, pooled human liver cytosol.
Data set [3] relates to thyroid hormone sulfotransferase activity in pooled human liver cytosol. The data set is described as above. It is filed as biochemical.
Another data set concerns SULT2A1. The note with it: read-out: Km of 3,3′-T2 for SULT2A1; cited from earlier work.
The test system of the next data set is SULT1E1. The conditions noted are these: read-out: Km of 3,3′-T2 for SULT1E1; cited from earlier work.
The subject of the next data set is SULT1A3. The conditions noted are these: read-out: Km of 3,3′-T2 for SULT1A3; cited from earlier work.
The test system of data set [4] is thyroid hormone sulfotransferase activity in pooled human liver cytosol. Nature of the data set: Mechanism of 3,3′-T2 sulfotransferase inhibition. The format is biochemical. The note with it: 3,3′-T2 0–5000 nM with varying 4-OH BDE 90; Vmax lower, apparent Km unchanged.

Regarding `Brc1ccc(Oc2ccc(Br)cc2Br)c(Br)c1` [BDE 47, 2,2′,4,4′-tetrabromodiphenyl ether], the “inhibition of 3,3′-T2 sulfation (result in words)” value in data set [1] is given as “did not inhibit 3,3′-T2 sulfation; also recorded: did not show inhibition”; in data set [1] (listed as BDE-47) it was “did not show sulfotransferase inhibition”.

Turning to `N[C@@H](Cc1ccc(Oc2ccc(O)c(I)c2)c(I)c1)C(=O)O` [3,3′-T2, 3,3′-diiodothyronine], the Km is 0.12 µM in the data set on SULT1A1; 1.07 ± 0.12 µM in data set [3] (read-out: apparent Km for the 3,3′-T2 sulfation reaction, pooled human liver cytosol 0.25 mg protein/ml, 30 min); 3 µM in the data set on SULT2A1; 3.5 to 9.7 µM in the data set on SULT1E1; 31 to 35 µM in the data set with SULT1A3. Besides, the microsomal CLint in data set [2] stood at 145 µL/min/mg. In addition, the “3,3′-T2S formation rate under standard conditions” value in data set [3] (1 μM 3,3′-T2, 30 min incubation, 0.25 mg protein/ml) was 70–80 pmol/min.mg protein. Further, the “Vmax for 3,3′-T2 sulfate formation” value in data set [3] (pooled human liver cytosol 0.25 mg protein/ml, 30 min) came out at 153 ± 6.6 pmol/min.mg protein.

Consider `Oc1cc(Oc2ccc(Br)cc2Br)ccc1Br` [3′-OH BDE 28, 3′-OH 2,4,4′-triBDE], for which the IC50 in data set [1] worked out at 190 nM.

Take `Oc1c(Br)c(Br)c(Oc2c(Br)cc(Br)c(Br)c2Br)c(Br)c1Br` [4′-OH BDE 201, 4′-OH 2,2′,3,3′,4,5′,6,6′-octaBDE]: the IC50 in data set [1] was found to be 510 nM.

For the molecule `Oc1cc(Br)cc(Br)c1Oc1cc(Br)c(Br)cc1Br` [6′-OH BDE 99, 6′-OH 2,2′,4,4′,5-pentaBDE], the IC50 in data set [1] came out at 310 nM.

Regarding `Oc1cc(Br)cc(Br)c1Oc1ccc(Br)cc1Br` [6-OH BDE 47, 6-OH 2,2′,4,4′-tetraBDE], the half-maximal inhibitory concentration (IC50) in data set [1] came to 130 nM.

In the case of `CC(C)(c1cc(Br)c(O)c(Br)c1)c1cc(Br)c(O)c(Br)c1` [TBBPA, tetrabromobisphenol A], the IC50 in data set [1] came out at 460 nM.

For the molecule `Oc1cc(Cl)ccc1Oc1ccc(Cl)cc1Cl` [Triclosan, triclosan], in data set [1] (3,3′-T2 sulfotransferase inhibition potency), the “fold less potent than 3′-OH BDE 28” value is “approximately 7 fold”. In addition, in data set [1], the IC50 was 1410 nM.

Consider `CC(C)(c1cc(Cl)c(O)c(Cl)c1)c1cc(Cl)c(O)c(Cl)c1` [TCBPA, 3,3′,5,5′-tetrachlorobisphenol A], for which the IC50 in data set [1] amounted to 340 nM.

Consider `Oc1cc(Br)c(Oc2ccc(Br)cc2Br)cc1Br` [4′-OH BDE 49, 4′-OH 2,2′,4,5′-tetraBDE], for which, in data set [1], the IC50 was found to be 650 nM.

On to `Oc1c(Br)cc(Oc2ccc(Br)cc2Br)c(Br)c1Br` [4-OH BDE 90, 4-OH 2,2′,3,4′,5-pentaBDE], for which the IC50 in data set [1] worked out at 24 nM. Besides, the inhibition mechanism entry in data set [4] is recorded as “non-competitive”.

Take `Oc1c(I)cc(I)cc1I` [2,4,6-TIP, 2,4,6-triiodophenol]: the IC50 in data set [1] was found to be 140 nM.

In the case of `Oc1ccccc1Oc1ccc(Br)cc1` [2′-OH BDE 3, 2′-OH 4-monoBDE], the half-inhibitory concentration (IC50) in data set [1] is 500 nM.

Take `CC(C)(c1cc(I)c(O)c(I)c1)c1cc(I)c(O)c(I)c1` [TIBPA, 3,3′,5,5′-tetraiodobisphenol A]: in data set [1], the IC50 is 13200 nM.

As to `Oc1c(F)cc(F)cc1F` [2,4,6-TFP, 2,4,6-trifluorophenol], the IC50 in data set [1] was 4.6 nM.

As to `Oc1cc(Oc2cc(Br)c(Br)cc2Br)c(Br)cc1Br` [5′-OH BDE 99, 5′-OH 2,2′,4,4′,5-pentaBDE], the IC50 in data set [1] was 520 nM.

On to `Oc1c(Br)ccc(Oc2ccc(Br)cc2Br)c1Br` [3-OH BDE 47, 3-OH 2,2′,4,4′-tetraBDE], for which the IC50 in data set [1] turned out to be 60 nM.

For the molecule `Oc1ccc(C(c2ccc(O)cc2)(C(F)(F)F)C(F)(F)F)cc1` [BPA-AF, 4,4′-(hexafluoroisopropylidene)diphenol], the IC50 in data set [1] turned out to be 8590 nM.

Take `Oc1cc(Oc2ccc(Br)cc2Br)c(Br)cc1Br` [5-OH BDE 47, 5-OH 2,2′,4,4′-tetraBDE]: in data set [1], the IC50 was determined as 400 nM.

For `Oc1cc(Br)c(Oc2cc(Br)c(Br)cc2Br)cc1Br` [4′-OH BDE 101, 4′-OH 2,2′,4,5, 5′-pentaBDE], the IC50 in data set [1] came out at 640 nM.

For `Oc1c(Br)cc(Br)cc1Br` [2,4,6-TBP, 2,4,6-tribromophenol], the IC50 in data set [1] is 8.3 nM.

`Oc1cccc(Oc2ccc(Br)cc2Br)c1` [3′-OH BDE 7, 3′-OH 2,4-diBDE]: the IC50 in data set [1] was determined as 410 nM.

As for `Oc1c(Br)cc(Br)c(Oc2cc(Br)c(Br)cc2Br)c1Br` [3′-OH BDE 154, 3-OH 2,2′,4,4′,5,6′-hexaBDE], the IC50 in data set [1] is 80 nM.

Usually Km stands for the substrate concentration at which the rate is half of its maximum. In general, microsomal CLint refers to the capacity of the preparation to metabolise the compound, expressed as a volume cleared per time. A high value points to rapid turnover. As a reminder, the IC50 is the point on the concentration scale where inhibition reaches its midpoint.
